Like-named read-outs stand apart in the source and are kept apart here.
Key:
[1] = Brivaracetam plasma pharmacokinetics, ER infusion vs IP bolus in rats (Example 16); assay type: in vivo; settings: PK satellite rats
Description: To reproduce the plasma profile of ER brivaracetam (ER profile, group 2), rats are administered brivaracetam as a continuous infusion into the intraperitoneal (IP) space. […] Control animals (group 1) are infused with vehicle using the same infusion protocol. […] Control animals (group 3) were implanted with pumps containing vehicle and were given an IP bolus of vehicle.
In order to fully elucidate the plasma concentration-time profile of brivaracetam administered by the ER and IR protocols, two groups of PK satellite rats are administered brivaracetam using identical protocols to groups 2 and 4 above to reproduce the ER and IR profiles, respectively. Blood is collected at varying time points and the plasma brivaracetam concentrations are determined. No rotarod testing is performed on the PK satellite rats.

[2] = cited from earlier work
[3] = test system: motor coordination in rats; experiment: Rotarod, ER profile vs IR profile of brivaracetam in rats (Example 16); assay type: in vivo
Description: The primary objective of this study is to compare the CNS side effects of brivaracetam when delivered as a continuous infusion to rats to simulate an extended release (ER) plasma profile or as a bolus to simulate an immediate release (IR) plasma profile. It is hypothesized that reducing the rate of rise of plasma concentrations with the ER profile compared to the IR profile results in reduced CNS impairment. CNS side effects are measured as an impairment of motor coordination in rodents using the rotarod. The rotarod (Ugo Basile, Italy) is a device that allows for quantitative measurement of motor coordination in rodents. Animals experiencing CNS side effects such as dizziness would fall off the rotarod faster than normal animals.
(§1) An acceleration protocol is used for training and test sessions, wherein the rotarod is accelerated from 0-40 rpm over a 5 minute session. All rats are then surgically implanted subcutaneously with programmable pumps (iPRECIO, Durect Corporation, Cupertino, Calif.), per the manufacturer's instructions, under anesthesia and using aseptic techniques.
Three days following pump implantation surgery, all rats are tested on the rotarod to obtain baseline performance values. […]
Animals that stay on the rotarod for the entire session are assigned a run-time of 300 seconds. The time that each animal stays on the rotarod prior to falling is automatically recorded. […]

[4] = Lacosamide plasma pharmacokinetics, ER infusion vs IP bolus in rats (Example 15); assay type: in vivo; settings: for Slope (rate of rise of plasma concentration): from initiation of drug administration; for Tmax: read-out: median Tmax; for AUC(0-t): read-out: AUC0-18
[5] = test system: motor coordination in rats; experiment: Rotarod, ER profile vs IR profile of lacosamide in rats (Example 15); assay type: in vivo
Description: It is hypothesized that reducing the rate of rise of plasma concentrations with the ER profile compared to the IR profile results in reduced CNS impairment. CNS side effects were measured as an impairment of motor coordination in rodents using the rotarod. The rotarod (Ugo Basile, Italy) is a device that allows for quantitative measurement of motor coordination in rodents. Animals experiencing CNS side effects such as dizziness would fall off the rotarod faster than normal animals.
as §1, with “was” for “is”, “were” for “are”
Three days following pump implantation surgery, all rats were tested on the rotarod to obtain baseline performance values. Rats were assigned to treatment groups such that the mean time spent on the rotarod was similar for each group. Four groups of rats were utilized in this study, with 8-10 rats per group:
The total pump infusion duration was 18 hours. Control animals (group 1) were infused with vehicle (20% N-methyl-2-pyrrolidone, NMP) using the same infusion protocol. […] Control animals (group 3) were implanted with pumps containing vehicle and were given an IP bolus of vehicle.
Immediately following the 18 hour pump infusion for the ER groups, or 1 hour after IP injection for the IR groups, rats were placed on the rotarod and the rotarod was accelerated from 0-40 rpm over a 5 minute session, using the built-in function of the equipment. Animals that stayed on the rotarod for the entire session were assigned a run-time of 300 seconds. The time that each animal stayed on the rotarod prior to falling was automatically recorded.

[6] = PK phase, single IV or PO dose of lacosamide in mice (Example 12); assay type: in vivo, male CD-1 mice; settings: male, CD-1, mouse, plasma
Source text: For the PK phase, male CD-1 mice were assigned to treatment groups according to the study design in Table Ex 12 below. IV dosing was done via tail vein injection and oral delivery was done with oral gavage tube.

[7] = test system: motor coordination in mice; experiment: Rotarod test in mice, PD phase (Example 12); assay type: in vivo
Description: The rotarod (Ugo Basile, […]) is a device that allows for quantitative measurement of motor coordination in rodents. Animals are pre-trained prior to testing on the rotarod.
24 hours prior to the test day, mice are trained to run on the accelerating rotarod for at least 120 s in two consecutive trials. The mice are given up to 12 trials to achieve this performance criterion. Any mice not meeting this criterion are excluded from the test study.
Mice are randomized to treatment groups (vehicle; IV: 3, 10 30 mg/kg; PO: 10, 30, 90 mg/kg). On the day of the test, the animals are dosed with test article and placed on the rotarod 5 minutes post-dosing. The rotarod is accelerated from 0-40 rpm over a 5 minute session, using the built-in function of the equipment. The rotarod test is repeated for each mouse at 15, 30 and 60 minutes post-drug administration. Animals that stay on the rotarod are assigned a run-time of 300 seconds. The time that each animal stays on the rotarod prior to falling is automatically recorded as the animal's fall latency.
The latency to fall time on the rotarod recorded for each animal is reported at each time point post-dose. Latency to fall is averaged (±SEM) across the 10 animals in each treatment group at each time point.

[8] = aqueous systems; cited from earlier work
[9] = test system: motor coordination in rats; experiment: Rotarod, IR vs ER subcutaneous infusion profile in rats (Example 14); assay type: in vivo; settings: at Cmax
Description: The example investigates reducing the rate of rise of plasma concentrations with the ER profile compared to the IR profile results in reduced CNS impairment. CNS side effects are measured as an impairment of motor coordination in rodents using the rotarod. Performance of rodents in a battery of neurobehavioral tests conducted during the infusion period are used as secondary endpoints as measures of CNS impairment.
The infusion protocols are designed to produce pharmacokinetic profiles of lacosamide similar to that of IR lacosamide administered twice-a-day (BID) to humans (IR profile) or an extended release profile administered once-a-day (QD) to humans (ER profile) at varying doses administered as IR BID or ER QD.
Rats are pre-trained on the rotarod prior to testing and assigned to groups based on their body weights.
Following the period of acclimation, rats are surgically implanted with subcutaneous programmable pumps (iPRECIO), per the manufacturer's instructions. […]
On the test day at the specified time point, rats are placed on the rotarod and the rotarod is accelerated from 0-40 rpm over a 5 minute session, using the built-in function of the equipment. […] The time that each animal stays on the rotarod prior to falling is automatically recorded as the animal's fall latency. […]

CCC[C@@H]1CC(=O)N([C@@H](CC)C(N)=O)C1 [brivaracetam, (2S)-2-[(4R)-2-oxo-4-propylpyrrolidin-1-yl]butanamide]
rate of rise of plasma concentration, ER profile as % of IR profile [1]: < 10%
elimination / plasma / pharmacokinetic half-life ([2]; human): 420 to 480 min
fraction of dose unchanged in urine ([2]; in vivo): 5-8%
Tmax ([2]; oral dosing, human): approximately 2 hours
change from baseline in time on the rotarod vs vehicle ([3]; ER profile): not different between brivaracetam treated and vehicle animals
change in time on the rotarod vs vehicle ([3]; IR profile, IP bolus): greater reduction in time on the rotarod than matched vehicle controls

COC[C@@H](NC(C)=O)C(=O)NCc1ccccc1 [lacosamide, R-2-acetamido-N-benzyl-3-methoxypropionamide]
Slope (rate of rise of plasma concentration) ([4]; Group 2 (ER)): 1.4 µg/mL/h
Slope (rate of rise of plasma concentration) ([4]; Group 4 (IR)): 62 µg/mL/h
reduction in the rate of the rise (slope) ER compared to IR ([4]; PK satellite rats): 98%
Tmax ([4]; rat, plasma, 19 mg/kg, IP bolus, IR profile (Group 4), PK satellite rats): 45 min
concentration at 1 h ([4]; rat, plasma, intraperitoneal, 19 mg/kg, group 4 (IR profile)): ~19000 ng/mL
concentration at 18 h ([4]; rat, plasma, intraperitoneal, 122 mg/kg, group 2 (ER profile)): ~19000 ng/mL
Cmax ([4]; rat, plasma, ip, 19 mg/kg, Group 4 (IR), PK satellite rats): 22000 ng/mL
AUC(0-t) ([4]; rat, plasma, ip, 19 mg/kg, Group 4 (IR)): 18 µg·h/mL
Tmax ([4]; rat, plasma, ip, 122 mg/kg, ER infusion protocol (Group 2), PK satellite rats): 900 min
AUC(0-t) ([4]; rat, plasma, ip, 122 mg/kg, Group 2 (ER), 18 hour infusion): 217 µg·h/mL
Cmax ([4]; rat, plasma, ip, 122 mg/kg, Group 2 (ER), PK satellite rats): 19000 ng/mL
percent change from baseline in time on the rotarod vs vehicle ([5]; ER groups, p>0.05): not statistically different
increase in time on the rotarod from baseline ([5]; ER profile (group 2), vehicle 27% increase): 45%
reduction in time on the rotarod from baseline ([5]; IR profile, IP bolus (group 4), vehicle 54% increase): 55%
elimination / plasma / pharmacokinetic half-life ([2]; human): about 13 hours
effect of CYP2C19 polymorphism on the pharmacokinetics ([2]; in vivo): no significant effect
Cmax ([6]; 90 mg/kg oral dose): ~40000 ng/mL
Tmax ([6]; IV route): < 5 min
Tmax ([6]; oral route): ~15 min
Cmax ([6]; single 10 mg/kg IV dose): ~15000 ng/mL
Cmax ([6]; single 30 mg/kg IV dose): ~40000 ng/mL
Cmax ([6]; single 30 mg/kg oral dose): ~15000 ng/mL
latency to fall, PO compared to IV ([7]; doses with equivalent Cmax but different Tmax (e.g. 30 mg/kg IV and 90 mg/kg PO)): greater latency to fall on the rotarod (less impairment)
effect of an increase in dose on latency to fall ([7]; same route of administration (IV or PO)): decrease in the latency to fall time on the rotarod
solubility [8]: about 20 mg/ml
time spent on the rotarod, IR profile compared to ER group ([9]; given dose level): significantly reduced time spent on the rotarod (i.e. greater impairment)
time spent on the rotarod vs dose ([9]; given infusion protocol, 400 vs 800 mg/day HED): decrease in a dose-dependent manner

Reference: patent publication US10987324B2, “Methods and compositions for the treatment of seizure-related disorders” (Adamas Pharmaceuticals, Inc., priority 2015, dated 2021)
